Several values for one entry are separate records, joined by “and”; a condition that tells them apart may be missing. Equal values may be shown once.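 Growth conditions: 96-well plates. Treatment: test compound, 48 hours, 5 concentrations. Analysis: linear interpolation between bracketing concentrations; unreached endpoints set to highest concentration. GI50: concentration for 50% inhibition of growth. TGI: total growth inhibition.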 Where only a bound is given, the exact number is not on record here.

Among the test systems are MDA-MB-231 breast; SF-268 CNS; HCC-2998 colon; MCF7 breast; OVCAR-5 ovarian; NCI-H226 lung; RPMI-8226 leukemia; A549 NSCLC; UACC-257 melanoma; NCI-H460 lung.
Common to all, as to experiment: NCI anticancer screen, dose series, 48 h

On to `COc1ncc(-c2ccc3nccc(-c4ccnnc4)c3c2)cc1NS(=O)(=O)c1ccc(F)cc1F`, for which the GI50 with MDA-MB-231 breast was 0.0392 µM and 0.0439 µM; in the experiment on SF-268 CNS, 0.0127 µM and 0.0148 µM; in the experiment on HCC-2998 colon, 0.00997 µM and 0.0133 µM; with MCF7 breast it was 0.00101 µM and < 0.01 µM; in the experiment on OVCAR-5 ovarian, 0.00728 µM and < 0.01 µM; in the experiment with NCI-H226 lung, 0.0269 µM and 0.0208 µM. For the same compound, the GI50 was 0.0321 µM and 0.0297 µM with RPMI-8226 leukemia; 0.00882 µM and < 0.01 µM with A549 NSCLC; 0.00627 µM and < 0.01 µM in the experiment on UACC-257 melanoma; 0.00406 µM and < 0.01 µM in the experiment on NCI-H460 lung. The TGI in the experiment on MDA-MB-231 breast is 1.83 µM; in the experiment with SF-268 CNS, > 10 µM and 9.23 µM; in the experiment on HCC-2998 colon, 0.275 µM and 0.572 µM; in the experiment with MCF7 breast, > 10 µM and 11 µM; in the experiment on OVCAR-5 ovarian, > 10 µM and 2.76 µM; in the experiment with NCI-H226 lung, > 3.68 µM and 2.91 µM. The TGI with RPMI-8226 leukemia is 0.656 µM and 0.963 µM; in the experiment on A549 NSCLC it was 1.49 µM and 1.32 µM; in the experiment on UACC-257 melanoma, 0.378 µM and 0.0615 µM; in the experiment on NCI-H460 lung, > 10 µM and 15.3 µM.
Regarding `COC(=O)C1=C(C(=O)ON)C2C=CC1(C(Cc1ccccc1)Nc1ccccc1)O2` (stereo not given), the GI50 was 1.87 µM in the experiment with MDA-MB-231 breast; 10.5 µM in the experiment with SF-268 CNS; 16.9 µM in the experiment with HCC-2998 colon; 2.42 µM with MCF7 breast; 3.27 µM in the experiment on OVCAR-5 ovarian; 12.8 µM in the experiment on NCI-H226 lung. The GI50 with RPMI-8226 leukemia was 2.33 µM; with A549 NSCLC, 15.2 µM; in the experiment with UACC-257 melanoma it was 1.81 µM; with NCI-H460 lung, 18 µM. Also, the TGI in the experiment with MDA-MB-231 breast stood at 3.59 µM; in the experiment on SF-268 CNS, 23 µM; in the experiment on HCC-2998 colon it was 32.3 µM; in the experiment with MCF7 breast it was 6.59 µM; with OVCAR-5 ovarian it was 12.1 µM; in the experiment on NCI-H226 lung, 25.6 µM. The TGI with RPMI-8226 leukemia came to 6.51 µM; in the experiment with A549 NSCLC, 29.4 µM; in the experiment on UACC-257 melanoma it was 3.34 µM; in the experiment with NCI-H460 lung it was 40.7 µM.
For `O=C1C(=O)c2ccccc2C(O)=C1CC=C(Br)Br`, the GI50 with MDA-MB-231 breast was 8.98 µM; in the experiment with SF-268 CNS, 2.66 µM; with HCC-2998 colon it was 18.6 µM; in the experiment on MCF7 breast, 4.29 µM; in the experiment with OVCAR-5 ovarian, 21.8 µM; in the experiment with NCI-H226 lung it was 11.6 µM. Moreover, the GI50 in the experiment with RPMI-8226 leukemia is 1.57 µM; with A549 NSCLC, 2.82 µM; with UACC-257 melanoma it was 11 µM; with NCI-H460 lung it was 0.524 µM. Also, the TGI with MDA-MB-231 breast is 27 µM; in the experiment with SF-268 CNS, over 100 µM; in the experiment with HCC-2998 colon it was over 100 µM; in the experiment with MCF7 breast, over 100 µM; in the experiment with OVCAR-5 ovarian, over 100 µM; with NCI-H226 lung it was 53.2 µM. Further, the TGI in the experiment on RPMI-8226 leukemia came out at 31.1 µM; in the experiment on A549 NSCLC it was 62.2 µM; in the experiment on UACC-257 melanoma it was 38.4 µM; in the experiment on NCI-H460 lung it was 13.3 µM.
In the case of `O=c1ccn(C2OC(CO/N=C/c3ccc(O)c(O)c3O)C(O)C2O)c(=O)[nH]1` (stereo not given), the GI50 in the experiment on MDA-MB-231 breast was 30 µM; in the experiment with SF-268 CNS it was 26.5 µM; with HCC-2998 colon, over 100 µM; in the experiment with MCF7 breast, 18.8 µM; in the experiment on OVCAR-5 ovarian it was over 100 µM; with NCI-H226 lung, over 100 µM. Also, the GI50 in the experiment with RPMI-8226 leukemia was 49.5 µM; in the experiment on A549 NSCLC it was 54.3 µM; with UACC-257 melanoma it was 33.5 µM; with NCI-H460 lung, over 100 µM. For the same compound, the TGI in the experiment with MDA-MB-231 breast is over 100 µM; in the experiment on SF-268 CNS it was 85.6 µM; in the experiment with HCC-2998 colon, over 100 µM; with MCF7 breast it was 37.6 µM; in the experiment with OVCAR-5 ovarian, over 100 µM; in the experiment with NCI-H226 lung it was over 100 µM. The TGI with RPMI-8226 leukemia, in the experiment with A549 NSCLC, with UACC-257 melanoma and in the experiment on NCI-H460 lung was over 100 µM each time.
For `COc1ccccc1CCN=C1NC(=O)/C(=C/c2ccc3ncccc3c2)S1`, the GI50 with MDA-MB-231 breast was 9.39 µM; with SF-268 CNS it was 7.54 µM; in the experiment on HCC-2998 colon, 8.7 µM; in the experiment with MCF7 breast, 1.63 µM; in the experiment on OVCAR-5 ovarian it was 7.06 µM; in the experiment on NCI-H226 lung, 7.28 µM. Further, the GI50 with RPMI-8226 leukemia was 4.33 µM; in the experiment with A549 NSCLC, 5.93 µM; in the experiment on UACC-257 melanoma, 7.52 µM; in the experiment on NCI-H460 lung it was 6.05 µM. The TGI in the experiment with MDA-MB-231 breast is over 25 µM; in the experiment on SF-268 CNS it was over 25 µM; with HCC-2998 colon it was over 25 µM; in the experiment with MCF7 breast it was over 23.9 µM; in the experiment on OVCAR-5 ovarian, over 23.1 µM; with NCI-H226 lung, 24.7 µM. For the same compound, the TGI is 19.6 µM in the experiment on RPMI-8226 leukemia, over 25 µM with A549 NSCLC, over 25 µM in the experiment on UACC-257 melanoma and over 25 µM in the experiment on NCI-H460 lung.
Take `COc1cc(C)c(Cl)cc1C1=NN(c2ccc(S(N)(=O)=O)cc2)C(/C=C/c2ccccc2)C1` (stereo not given): the GI50 in the experiment on MDA-MB-231 breast is 3.3 µM; in the experiment on SF-268 CNS, 4.4 µM; with HCC-2998 colon it was 2.57 µM; in the experiment on MCF7 breast, 2.55 µM; in the experiment on OVCAR-5 ovarian, 4.04 µM; in the experiment with NCI-H226 lung, 1.53 µM. The GI50 is 2.76 µM with RPMI-8226 leukemia, 3.31 µM in the experiment on A549 NSCLC, 3.58 µM in the experiment on UACC-257 melanoma and 2.43 µM in the experiment on NCI-H460 lung. Further, the TGI was 10.8 µM in the experiment with MDA-MB-231 breast; over 100 µM with SF-268 CNS; 8.49 µM with HCC-2998 colon; 9.13 µM in the experiment with MCF7 breast; 57.3 µM in the experiment with OVCAR-5 ovarian; 3.46 µM with NCI-H226 lung. For the same compound, the TGI came to 7.93 µM in the experiment with RPMI-8226 leukemia, 19.3 µM with A549 NSCLC, 20.5 µM with UACC-257 melanoma and 6.3 µM in the experiment on NCI-H460 lung.
Consider `O=C(c1ccco1)c1nc2cc(Cl)ccc2[n+]([O-])c1C(F)(F)F`, for which the GI50 in the experiment with MDA-MB-231 breast is 34.2 µM; in the experiment on SF-268 CNS, 71.1 µM; in the experiment on HCC-2998 colon it was 18.5 µM; in the experiment on MCF7 breast it was 41 µM; in the experiment on OVCAR-5 ovarian it was over 100 µM; in the experiment on NCI-H226 lung, 33.2 µM. Also, the GI50 is 10.8 µM in the experiment with RPMI-8226 leukemia, 63.3 µM in the experiment on A549 NSCLC, 4.07 µM with UACC-257 melanoma and 57 µM with NCI-H460 lung. The TGI with MDA-MB-231 breast is over 100 µM; in the experiment on SF-268 CNS, over 100 µM; in the experiment with HCC-2998 colon, 34.9 µM; in the experiment with MCF7 breast, over 100 µM; in the experiment on OVCAR-5 ovarian, over 100 µM; with NCI-H226 lung, over 100 µM. Also, the TGI in the experiment on RPMI-8226 leukemia was 44 µM; with A549 NSCLC it was over 100 µM; with UACC-257 melanoma it was 32.9 µM; in the experiment with NCI-H460 lung, over 100 µM.

Values taken from PubChem BioAssay (NCI).
